Where a name gives a salt, the structure may show the parent alone. Read-outs that look alike come from different tables or passages of the source.
Columns and labels:
Type in all cases: in vivo
[1] = tested on: collagen-induced arthritis (CIA) in mice; assay: Antibody-mediated collagen-induced arthritis in mice; details: 20 mg/kg i.p. twice daily
Experimental: The murine CIA model used in this study is called antibody-mediated CIA, and can be induced by i.v. injection of a combination of different anti-type II collagen monoclonal antibodies (Terato K., et al. (1995). Autoimmunity. 22:137).
In this example, arthrogen-collagen-induced arthritis antibody kits were purchased from Chemicon International (Temecula, Calif.) and arthritis was induced using the manufacturer's protocol. Mice were injected i.v. with a cocktail of 4 anti-collagen Type II monoclonal antibodies (0.5 mg each) on day 0, followed by i.p. injection of 25 μg lipopolysaccharide (LPS) on day 2. Mice develop swollen wrists, ankles, and digits 3-4 days after LPS injection, with disease incidence of 90% by day 7. Severity of arthritis in each limb was scored for 12 days as follows: 0=normal; 1=mild redness, slight swelling of ankle or wrist; 2=moderate redness and swelling of ankle or wrist; 3=severe redness and swelling of some digits, ankle and paw; 4=maximally inflamed limb. Animals were divided in 3 groups of 6 animals: vehicle, methotrexate (MTX)-treated, and compound-treated. Animals in the vehicle group were injected i.p. with phosphate buffer saline (PBS), twice daily for 12 days (starting on day 0). MTX (3 mg/kg) was administered i.p. starting on day 0 and continuing every other day (Mon., Weds., Fri.) for the duration of the experiment.
For each of the two sets of data (arthritis score and paw swelling), a repeated measure analysis was performed to assess the treatment effect.
The relative RT-PCR approach was used. To perform this experiment, a kit from Ambion (USA) was used that employs 18S ribosomal RNA (rRNA) as an internal control. In addition to the rRNA primers, the kit also provides specific primers for the amplification of the different cytokines to be analyzed. […] At the end of the study, animals were euthanized and the right hind paws were extracted and frozen. Total RNA was isolated using 1 ml of Trizol reagent (Invitrogen, USA) per 50-100 mg tissue according to the manufacturer's instructions. […]

[2] = tested on: relapsing EAE in SJL/J mice; assay: Chronic relapsing EAE (model of chronic multiple sclerosis); details: 10 mg/kg i.p. bid for 53 days
Experimental: An analysis of the use of VAP-1/SSAO inhibitors to treat inflammatory diseases of the CNS is performed through the use of a relapsing experimental autoimmune encephalomyelitis model (EAE) in SJL/J mice.
To examine the role of VAP-1 as a major regulator of lymphocyte recruitment to the CNS, VAP-1/SSAO inhibitor was evaluated in a chronic relapsing EAE model.
Then animals were monitored for signs of paralysis according to a 0-5 scale of scoring system as follows: • 0.5 partial tail weakness • 1 limp tail or waddling gait with tail tonicity; • 1.5 waddling gait with partial tail weakness • 2 waddling gait with limp tail (ataxia); • 2.5 ataxia with partial limb paralysis; • 3 full paralysis of one limb; • 3.5 full paralysis of one limb with partial paralysis of second limb; • 4 full paralysis of two limbs; • 4.5 moribund; • 5 death.
The results are expressed as mean clinical score (FIG. 9A), % incidence (number of mice with any paralysis/10 mice) (FIG. 9B), % mice with chronic disease (mice with at least one relapse) (FIG. 9C), and cumulative total number of relapses (FIG. 9D).

[3] = tested on: carrageenan-induced paw edema in Sprague Dawley rats; assay: Carrageenan-induced rat paw edema; details: for paw swelling: 100 mg/kg i.p. 15 minutes prior to carrageenan, 60, 120, 180 min, p<0.05
Experimental: Female Sprague Dawley rats were used and compounds of the invention were injected i.p. at 100 mg/kg 15 minutes prior to carrageenan exposure. The control group was injected with an equal volume of vehicle (PBS). Edema in the paws was induced as previously described by injecting 50 μl of a 0.5% solution of carrageenan (Type IV Lambda, Sigma) in saline with a 27-G needle s.c. in the right foot pat. (See Whiteley P. E. and Dalrymple S. A. (1998) Models of inflammation: carrageenan-induced paw edema in the rat, in Current Protocols in Pharmacology. Enna S J, Williams M, Ferkany J W, Kenaki T, Porsolt R E and Sullivan J P, eds., pp 5.4.1-5.4.3, John Wiley & Sons, New York) The size of the tested foot of each animal was measured volumetrically, before induction of edema, and at 60, 120, and 180 min after carrageenan induction.
Briefly, SSAO inhibitors (30 mg/kg), indomethacin (3 mg/kg) and PBS were administered orally to rats 1 hour after carrageenan injections.
To investigate further the role of SSAO inhibition in the inflammatory response, studies were carried out to assess the effect of SSAO inhibition on prostaglandin E2 (PGE2) levels. Animals were divided into four therapeutic groups of eight rats each. […] The fourth group received 3 mg/kg of dexamethasone, i.p. 1 hour before paw inflammation. Three hours after carrageenan injection, rats were asphyxiated with CO2 and their hind paws removed. The paws were lacerated with a scalpel, suspended off the bottom of a polypropylene 1.5 ml tube with a micropipette tip and centrifuged to express the inflammatory fluid. The volume collected from each paw was determined and the fluid was analyzed by ELISA for PGE2 production using a commercial kit (R&D Systems, Minneapolis, Minn.) according to the manufacturer's instructions. […] Data were analyzed with GraphPad Prism software (San Diego, Calif.) by Dunnett's test following analysis of variance.

[4] = Acute toxicity studies in mice; details: female, C57B1/6, mouse, in vivo, Day 7 values
Experimental: (§1) Intraperitoneal (i.p.) and intravenous (i.v.) LD50 values for the compounds of Examples 8 and 10, as well as mofegiline, the allylamine compound described in Example 18, were determined in mice. Six-week old C57B1/6 female mice were divided in groups of five and administered a single i.p or i.v. injection of compound dissolved in PBS (10-100 mg/kg in 100 ul i.v.; 30-500 mg/kg in 200 ul i.p.). Control groups were administered the same volume of PBS i.p. or i.v. Appearance and overt behavior were noted daily, and body weight was measured before compound administration (Day 1) and on Days, 3, 5 and 7. After seven days, animals were euthanized and their liver, spleen and kidneys weighted.
(§2) Acute toxicity effects for mofegiline included tremors (40 mg/kg i.v.; 100 mg/kg i.p.) and clonic convulsions and labored breathing (100 mg/kg i.v.; 200 mg/kg i.p.). […] All deaths occurred within 24 hours after drug administration. […] Thus, there is no indication of the cause of death for any of the compounds tested.

C57B1/6 female mice = assay: Acute toxicity studies in mice; details: for acute toxicity effects observed: 100 mg/kg i.v.; for dose causing convulsions and labored breathing: i.p. (see Table 2)
Experimental: as §1, §2

[5] = ip, single i.p. injection, read-out: LD50 intraperitoneal
[6] = iv, single i.v. injection, read-out: LD50 intravenous

Q: For `C=C(CNN)c1ccccc1` [Example 2, Hydrochloride], which final arthritis score ([1]; day 0-11, p=0.0046 vs PBS) is on record?
A: Its final arthritis score is “clearly reduced”.

Q: And the paw swelling ([1]; day 0-11, p=0.0060 vs PBS)?
A: The paw swelling was “clearly reduced”.

Q: And the “levels of TNFα mRNA in the paws (relative RT-PCR, TNFα:18S rRNA)” value ([1]; right hind paws at end of study)?
A: Its value is “able to reduce”.

Q: What about the “cumulative number of relapses” value ([2]; p<0.0001 vs buffer) of the same molecule?
A: The value was “statistically significant reduction”.

Q: What about the “incidence of chronic disease (mice with at least one relapse)” value ([2]; p<0.0001 vs buffer) of the same molecule?
A: The value was “significant lower”.

Q: And the overall clinical severity ([2]; p<0.005 vs buffer)?
A: Its overall clinical severity is “statistically significant reduction”.

Q: And the “PGE2 production in paw exudate” value ([3]; 50 mg/kg oral 1 hour prior to carrageenan, 3 hours after injection, equivalent to dexamethasone)?
A: The value was “significantly reduce”.

Q: What about the paw volume ([3]; 50 mg/kg oral 1 hour prior to carrageenan, FIG. 11A) of the same molecule?
A: The paw volume was “reduces”.

Q: What about the paw swelling [3] of the same molecule?
A: Its paw swelling is “clearly and significantly reduced”.

Q: For `C=C(CNN)c1ccc(F)cc1.Cl` [Example 8, N-[2-(4′-fluorophenyl)-allyl]-hydrazine Hydrochloride], which LD50 at 7 days [4, 5] is on record?
A: The LD50 at 7 days was 350 mg/kg.

Q: What about the LD50 at 7 days [4, 6] of the same molecule?
A: The LD50 at 7 days was greater than 100 mg/kg.

Q: And the “acute toxicity effects observed” value (C57B1/6 female mice)?
A: The value was “only tremor”.

Q: And the “dose causing convulsions and labored breathing” value (C57B1/6 female mice)?
A: Its value is “greater than 350 mg/kg”.

Q: What about the paw swelling [3] of the same molecule?
A: The paw swelling was “clearly and significantly reduced”.

Q: What does the source list for `Cl.NNC/C(=C/F)c1ccccc1` [Example 10, (E)-1-fluoro-2-phenyl-3-hydrazinopropene Hydrochloride]?
A: LD50 at 7 days [4, 5]: 250 mg/kg; LD50 at 7 days [4, 6]: > 100 mg/kg; acute toxicity effects observed (C57B1/6 female mice): only tremor; dose causing convulsions and labored breathing (C57B1/6 female mice): greater than 250 mg/kg
